Reference: patent EP3002287B1, “Thiochromeno[2,3-c]quinolin-12-one derivatives and their use as topoisomerase inhibitors” (National Defense Medical Center, priority 2014, dated 2016)

What was measured:
Assay in all cases: NCI in vitro 60-cell drug screen (SRB assay)
Format in all cases: cell-based
SF-539 = SF-539 (CNS cancer); 10^-5 molar concentration; 48 hours
UACC-62 = UACC-62 (Melanoma); 10^-5 molar concentration; 48 hours
OVCAR-3 = OVCAR-3 (Ovarian cancer); 10^-5 molar concentration; 48 hours
HCT-116 = HCT-116 (Colon cancer); 10^-5 molar concentration; 48 hours
NCI-H522 = NCI-H522 (Non-small cell lung cancer); 10^-5 molar concentration; 48 hours
MCF7 = MCF7 (Breast cancer); 10^-5 molar concentration; 48 hours
SW-620 = SW-620 (Colon cancer); 10^-5 molar concentration; 48 hours
NCI/ADR-RES = NCI/ADR-RES (Ovarian cancer); 10^-5 molar concentration; 48 hours
A498 = A498 (Renal cancer); 10^-5 molar concentration; 48 hours
DU-145 = DU-145 (Prostate cancer); 10^-5 molar concentration; 48 hours
MOLT-4 = MOLT-4 (Leukemia); 10^-5 molar concentration; 48 hours
K-562 = K-562 (Leukemia); 10^-5 molar concentration; 48 hours
NCI-H226 = NCI-H226 (Non-small cell lung cancer); 10^-5 molar concentration; 48 hours
OVCAR-4 = OVCAR-4 (Ovarian cancer); 10^-5 molar concentration; 48 hours
CCRF-CEM = CCRF-CEM (Leukemia); 10^-5 molar concentration; 48 hours
U251 = U251 (CNS cancer); 10^-5 molar concentration; 48 hours
SF-268 = SF-268 (CNS cancer); 10^-5 molar concentration; 48 hours
MDA-MB-435 = MDA-MB-435 (Melanoma); 10^-5 molar concentration; 48 hours
SK-OV-3 = SK-OV-3 (Ovarian cancer); 10^-5 molar concentration; 48 hours
HL-60(TB) = HL-60(TB) (Leukemia); 10^-5 molar concentration; 48 hours
A549/ATCC = A549/ATCC (Non-small cell lung cancer); 10^-5 molar concentration; 48 hours
OVCAR-5 = OVCAR-5 (Ovarian cancer); 10^-5 molar concentration; 48 hours
NCI-H460 = NCI-H460 (Non-small cell lung cancer); 10^-5 molar concentration; 48 hours
T-47D = T-47D (Breast cancer); 10^-5 molar concentration; 48 hours
COLO 205 = COLO 205 (Colon cancer); 10^-5 molar concentration; 48 hours
SK-MEL-2 = SK-MEL-2 (Melanoma); 10^-5 molar concentration; 48 hours
RXF 393 = RXF 393 (Renal cancer); 10^-5 molar concentration; 48 hours
SK-MEL-5 = SK-MEL-5 (Melanoma); 10^-5 molar concentration; 48 hours
ACHN = ACHN (Renal cancer); 10^-5 molar concentration; 48 hours
NCI-H23 = NCI-H23 (Non-small cell lung cancer); 10^-5 molar concentration; 48 hours
HCT-15 = HCT-15 (Colon cancer); 10^-5 molar concentration; 48 hours
786-0 = 786-0 (Renal cancer); 10^-5 molar concentration; 48 hours
BT-549 = BT-549 (Breast cancer); 10^-5 molar concentration; 48 hours
IGROV1 = IGROV1 (Ovarian cancer); 10^-5 molar concentration; 48 hours

Row | SMILES | Growth percent (SF-539) [%] | Growth percent (UACC-62) [%] | Growth percent (OVCAR-3) [%] | Growth percent (HCT-116) [%] | Growth percent (NCI-H522) [%] | Growth percent (MCF7) [%] | Growth percent (SW-620) [%] | Growth percent (NCI/ADR-RES) [%] | Growth percent (A498) [%] | Growth percent (DU-145) [%] | Growth percent (MOLT-4) [%] | Growth percent (K-562) [%] | Growth percent (NCI-H226) [%] | Growth percent (CCRF-CEM) [%] | Growth percent (U251) [%] | Growth percent (SF-268) [%] | Growth percent (MDA-MB-435) [%] | Growth percent (SK-OV-3) [%] | Growth percent (HL-60(TB)) [%] | Growth percent (A549/ATCC) [%] | also measured
1 | O=c1c2ccc(Cl)cc2sc2c(Cl)nc3ccccc3c12 [Compound 3, 6,9-Dichloro-12H-thiochromeno[2,3-c]quinolin-12-one] | 89.02 | 89.69 | 111.27 | 102.27 | 96.81 | 82.58 | 99.06 | 102.80 | 106.06 | 114.27 | 98.04 | 101.04 | 83.41 | 93.12 | 101.71 | 109.60 | 100.64 | 101.32 | 99.34 | 104.74 | Growth percent (OVCAR-4): 87.91%; Growth percent (OVCAR-5): 100.07%; Growth percent (NCI-H460): 103.14%; Growth percent (T-47D): 110.10%; Growth percent (COLO 205): 112.15%; Growth percent (SK-MEL-2): 95.54%; Growth percent (RXF 393): 102.55%; Growth percent (SK-MEL-5): 97.42%; Growth percent (ACHN): 86.84%; Growth percent (NCI-H23): 85.12%; Growth percent (HCT-15): 102.28%; Growth percent (786-0): 105.25%; Growth percent (BT-549): 110.01%; Growth percent (IGROV1): 96.06%
2 | CN(C)c1nc2ccccc2c2c(=O)c3cc(Cl)ccc3sc12 [Compound 6, 10-Chloro-6-dimethylamino-12H-thiochromeno[2,3-c]quinolin-12-one] | 72.72 | 87.80 | 79.65 | 74.26 | 70.42 | 22.19 | 105.18 | 87.86 | 97.06 | 92.93 | 97.52 | 99.71 | 96.20 | 99.42 | 93.55 | 77.86 | 107.18 | 41.57 | 107.16 | 94.16 | Growth percent (OVCAR-5): 98.05%; Growth percent (NCI-H460): 88.86%; Growth percent (T-47D): 37.66%; Growth percent (COLO 205): 89.67%; Growth percent (SK-MEL-2): 87.26%; Growth percent (RXF 393): 83.17%; Growth percent (SK-MEL-5): 97.92%; Growth percent (ACHN): 64.81%; Growth percent (NCI-H23): 77.00%; Growth percent (HCT-15): 89.27%; Growth percent (786-0): 87.00%; Growth percent (BT-549): 92.96%; Growth percent (IGROV1): 68.16%
3 | CN1CCN(c2nc3ccccc3c3c(=O)c4cc(Cl)ccc4sc23)CC1 [Compound 8, 10-Chloro-6-(4-methylpiperazin-1-yl)-12H-thiochromeno[2,3-c]q uinolin-12-one] | 85.30 | 99.27 | 89.13 | 80.94 | 98.78 | 76.60 | 95.50 | 81.35 | 79.33 | 103.45 | 87.97 | 72.98 | 85.67 | 91.60 | 92.52 | 82.98 | 105.80 | 75.11 | 96.19 | 99.80 | Growth percent (OVCAR-4): 94.93%; Growth percent (OVCAR-5): 98.14%; Growth percent (NCI-H460): 96.05%; Growth percent (T-47D): 82.24%; Growth percent (COLO 205): 90.06%; Growth percent (SK-MEL-2): 97.53%; Growth percent (RXF 393): 88.57%; Growth percent (SK-MEL-5): 99.54%; Growth percent (ACHN): 89.73%; Growth percent (NCI-H23): 81.11%; Growth percent (HCT-15): 93.94%; Growth percent (786-0): 90.48%; Growth percent (BT-549): 96.25%; Growth percent (IGROV1): 80.08%
